Consider 26 molecules from US8226983B2, “Method for producing pulverized organic compound particle” (Activus Pharma Co., Ltd., priority 2007, dated 2012).

Data set [1] in a line: Average particle diameter by BET type specific surface area analyzer. As to conditions: for average particle diameter of the starting organic compound: before pulverization; for average particle diameter of the starting organic compound / average particle diameter of the resulting particles: BET method; for Ave. Diameter after pulverization (nm): as Example 3; for average particle diameter of the resulting particles: after pulverization. In kind it is physicochemical. An excerpt: The average particle diameter of the particles can be measured by conventionally used particle size measurement techniques such as a microscopic method, a screening method, a Coulter counter method, a sedimentation method, an air permeation method, and a gas adsorption method, but the average particle diameter according to the present invention means the average particle diameter measured according to a gas adsorption method. The method is based on the principle that when molecules or ions having a known size are adsorbed to the surface of the particles, the particles adsorb the molecules or ion according to the specific surface area. Thus, the method is a method of determining the specific surface area using an adsorption isotherm equation or an isotherm, and calculating the average particle diameter, and the method is excellent as a method for measuring the average particle diameter of finely pulverized particles. Next, the present invention will be described in more detail by way of Examples, but the present invention is not intended to be limited to the following Examples. The measurement of the average particle size was all carried out using a BET type specific surface area analyzer (Macsorb type MH-1201, manufactured by Mountech Co., Ltd.).

A short description of data set [2]: Crystallinity by X-ray diffraction. In kind it is physicochemical. As to conditions: D8 Discover X-ray diffraction apparatus. An excerpt:
Each crystallinity of the quinolinone derivative before being finely pulverized, the quinolinone derivative obtained in Example 8 and the quinolinone derivative obtained in Comparative Example 8, was examined using an X-ray diffraction measurement apparatus (D8 Discover, manufactured by Bruker AXS, Inc.

On to `CC(C)Cc1ccc(C(C)C(=O)O)cc1` (stereo not drawn) [ibuprofen], for which the “average particle diameter of the starting organic compound” value in data set [1] is 18,050 nm.
As to `CC(=O)OCC(=O)[C@@]1(O)CC[C@H]2[C@@H]3CCC4=CC(=O)CC[C@]4(C)[C@H]3C(=O)C[C@@]21C` [cortisone acetate], in data set [1], the “average particle diameter of the starting organic compound” value was 1,060 nm. Further, the “Ave. Diameter before pulverization (nm)” value in data set [1] (cortisone acetate, Example 24) was 1,060 nm. Also, the “Ave. Diameter after pulverization (nm)” value in data set [1] (cortisone acetate, polyol Diethylene glycol) was 480 nm; in data set [1] (cortisone acetate, polyol Glycerin) it was 260 nm; in data set [1] (cortisone acetate, polyol Polyethylene glycol), 590 nm; in data set [1] (cortisone acetate, polyol Propylene glycol) it was 450 nm.
Take `CC(C)Cc1ccc(C(C)C(=O)O)cc1` (stereo not drawn) [Comparative Example 14, ibuprofen]: the “average particle diameter of the resulting particles” value in data set [1] is reported as 1,900 nm.
In the case of `COc1cc(C(=O)NS(=O)(=O)c2ccccc2C)ccc1Cc1cn(C)c2ccc(NC(=O)OC3CCCC3)cc12` [zafirlukast], the “average particle diameter of the starting organic compound” value in data set [1] is recorded as 5,347 nm.
With `CCC(=O)OCC(=O)[C@@]1(OC(=O)CC)[C@@H](C)C[C@H]2[C@@H]3CCC4=CC(=O)C=C[C@]4(C)[C@@]3(Cl)[C@@H](O)C[C@@]21C` [Comparative Example 5, beclometasone dipropionate], in data set [1], the “average particle diameter of the resulting particles” value is on record as 730 nm.
As for `CC1=C(/C=C/C(C)=C/C=C/C(C)=C/C=C/C=C(C)/C=C/C=C(C)/C=C/C2=C(C)CCCC2(C)C)C(C)(C)CCC1` [Comparative Example 3, β-carotene], the “average particle diameter of the resulting particles” value in data set [1] is 570 nm.
On to `Clc1ccc(COC(Cn2ccnc2)c2ccc(Cl)cc2Cl)c(Cl)c1` (stereo not drawn) [Comparative Example 8, miconazole], for which the “crystallinity (X-ray diffraction)” value in data set [2] is recorded as “amorphous”. The “average particle diameter of the resulting particles” value in data set [1] came out at 651 nm.
`Clc1ccc(COC(Cn2ccnc2)c2ccc(Cl)cc2Cl)c(Cl)c1` (stereo not drawn) [miconazole]: in data set [1], the “average particle diameter of the starting organic compound” value is 10,900 nm.
The same measure, in the same setting: with `COc1ccc2c(c1)c(CC(=O)O)c(C)n2C(=O)c1ccc(Cl)cc1` [indomethacin] the figure was 3,980 nm.
`CCCCCCCCOc1c(O)c2ccc(NC(=O)C=Cc3cc(OC)c(O)c(OC)c3)cc2n(C)c1=O` [Comparative Example 7, 7-(3,5-dimethoxy-4-hydroxycinnamoylamino)-3-octyloxy-4-hydroxy-1-methyl-2(1H)-quinolinone]: in data set [1], the “average particle diameter of the resulting particles” value is 128 nm.
On the same count and under the same terms, next, `CCCCCCCCOc1c(O)c2ccc(NC(=O)C=Cc3cc(OC)c(O)c(OC)c3)cc2n(C)c1=O` [Comparative Example 6, 7-(3,5-dimethoxy-4-hydroxycinnamoylamino)-3-octyloxy-4-hydroxy-1-methyl-2(1H)-quinolinone]: 620 nm.
On to `CCCCCCCCOc1c(O)c2ccc(NC(=O)C=Cc3cc(OC)c(O)c(OC)c3)cc2n(C)c1=O` [quinolinone derivative, 7-(3,5-dimethoxy-4-hydroxycinnamoylamino)-3-octyloxy-4-hydroxy-1-methyl-2(1H)-quinolinone], for which the “crystallinity (X-ray diffraction)” value in data set [2] is “crystalline structures”. Moreover, the “average particle diameter of the starting organic compound” value in data set [1] is given as 1,280 nm.
Regarding `COc1cc(C(=O)NS(=O)(=O)c2ccccc2C)ccc1Cc1cn(C)c2ccc(NC(=O)OC3CCCC3)cc12` [Comparative Example 13, zafirlukast], in data set [1], the “average particle diameter of the resulting particles” value is given as 558 nm.
Same read-out and setting: with `CCC(=O)O[C@]1(C(=O)SCF)[C@H](C)C[C@H]2[C@@H]3C[C@H](F)C4=CC(=O)C=C[C@]4(C)[C@@]3(F)[C@@H](O)C[C@@]21C` [Example 22, fluticasone propionate] the figure was 70 nm.
Still for that read-out and setting: next, `CCC(=O)O[C@]1(C(=O)SCF)[C@H](C)C[C@H]2[C@@H]3C[C@H](F)C4=CC(=O)C=C[C@]4(C)[C@@]3(F)[C@@H](O)C[C@@]21C` [Example 19, fluticasone propionate]: 103 nm; `CCC(=O)O[C@]1(C(=O)SCF)[C@H](C)C[C@H]2[C@@H]3C[C@H](F)C4=CC(=O)C=C[C@]4(C)[C@@]3(F)[C@@H](O)C[C@@]21C` [Example 20, fluticasone propionate]: 94 nm.
For `CCC(=O)O[C@]1(C(=O)SCF)[C@H](C)C[C@H]2[C@@H]3C[C@H](F)C4=CC(=O)C=C[C@]4(C)[C@@]3(F)[C@@H](O)C[C@@]21C` [Example 18, fluticasone propionate], the “average particle diameter of the resulting particles” value in data set [1] amounted to 108 nm.
On the same count and under the same terms, next, `CCC(=O)O[C@]1(C(=O)SCF)[C@H](C)C[C@H]2[C@@H]3C[C@H](F)C4=CC(=O)C=C[C@]4(C)[C@@]3(F)[C@@H](O)C[C@@]21C` [Example 17, fluticasone propionate]: 114 nm.
Regarding `COc1ccc2c(c1)c(CC(=O)O)c(C)n2C(=O)c1ccc(Cl)cc1` [Comparative Example 1, indomethacin], the “average particle diameter of the resulting particles” value in data set [1] was 1,060 nm.
As for `CCCCCCCCOc1c(O)c2ccc(NC(=O)C=Cc3cc(OC)c(O)c(OC)c3)cc2n(C)c1=O` [Example 8, 7-(3,5-dimethoxy-4-hydroxycinnamoylamino)-3-octyloxy-4-hydroxy-1-methyl-2(1H)-quinolinone], the “crystallinity (X-ray diffraction)” value in data set [2] was “crystalline structures”.
Take `CCC(=O)O[C@]1(C(=O)SCF)[C@H](C)C[C@H]2[C@@H]3C[C@H](F)C4=CC(=O)C=C[C@]4(C)[C@@]3(F)[C@@H](O)C[C@@]21C` [Example 21, fluticasone propionate]: the “average particle diameter of the resulting particles” value in data set [1] is listed as 92 nm.
In the case of `CCC(=O)O[C@]1(C(=O)SCF)[C@H](C)C[C@H]2[C@@H]3C[C@H](F)C4=CC(=O)C=C[C@]4(C)[C@@]3(F)[C@@H](O)C[C@@]21C` [fluticasone propionate], the “average particle diameter of the starting organic compound” value in data set [1] was 7,850 nm.
On the same count and under the same terms, with `CCC(=O)OCC(=O)[C@@]1(OC(=O)CC)[C@@H](C)C[C@H]2[C@@H]3CCC4=CC(=O)C=C[C@]4(C)[C@@]3(Cl)[C@@H](O)C[C@@]21C` [beclometasone dipropionate] the figure was 1,820 nm.
Regarding `CCC(=O)O[C@]1(C(=O)SCF)[C@H](C)C[C@H]2[C@@H]3C[C@H](F)C4=CC(=O)C=C[C@]4(C)[C@@]3(F)[C@@H](O)C[C@@]21C` [Comparative Example 10, fluticasone propionate], the “average particle diameter of the resulting particles” value in data set [1] is given as 438 nm.
Still for that read-out and setting: with `CCC(=O)O[C@]1(C(=O)SCF)[C@H](C)C[C@H]2[C@@H]3C[C@H](F)C4=CC(=O)C=C[C@]4(C)[C@@]3(F)[C@@H](O)C[C@@]21C` [Example 23, fluticasone propionate] the figure was 109 nm.
As for `CC1=C(/C=C/C(C)=C/C=C/C(C)=C/C=C/C=C(C)/C=C/C=C(C)/C=C/C2=C(C)CCCC2(C)C)C(C)(C)CCC1` [β-carotene], in data set [1], the “average particle diameter of the starting organic compound” value is recorded as 1,720 nm.
